Test results from US20180188224A1, “METHOD FOR CONSTRUCTING A SENSORY SPACE” (CENTRE SCIENTIFIQUE ET TECHNIQUE DU BATIMENT (CSTB), priority 2015, published 2018).
“And” between values parts separate entries of the source, which are not always exact repeats. Identical values can stand only once.

Legend:
[1] = system: four non-smoking volunteers (2 men and 2 women); test: Taste identification questionnaire, trained panel (count of 6 repetitions per subject in which the stimulus was given each taste label; level of recognition %); type: in vivo, human
Experimental: (§1) In this test, four non-smoking volunteers (2 men and 2 women) were chosen from 12 people for their performance in taste recognition. Their mean age was 32 years, ranging from 24 to 40 years. […] These four people were trained for several months to recognize and detect the four basic tastes, and also regarding the procedures of sensory and physiological analysis.
(§2) The four basic tastes (sweet, salty, sour and bitter) were used. The solutions were prepared with citric acid for the sour taste, caffeine for the bitter taste, sodium chloride for the salty taste and sucrose for the sweet taste (all purchased from Sigma Aldrich, France) in Evian water. Evian water was also used as control and blank. Each taste was prepared with the four concentrations mentioned in table 1.
(§3) The amount of solution to be tested was standardized at 10 ml. In order to impregnate the whole of the oral cavity, the subjects kept the solution in their mouth for 5 s before swallowing it.
(§4) The sessions were individual and the subjects were asked not to eat or drink anything for at least 1 h before the test. They arrived 15 min before the start of the session in order to acclimatize to the environmental conditions, in particular the temperature of the room (kept constant at 23° C.) and to be resting seated on a comfortable chair. The 16 solutions for testing and two additional samples of water containing solely Evian water, added to the references, were presented monadically following a test order determined from a “balanced incomplete block design”. During a session, 9 samples out of 18 were presented to minimize sensory fatigue. In addition, a sample of Evian was always tested as a “blank” sample in order to avoid the first-order effect (Lawless, H. T. & Heymann, H., 2010, Sensory evaluation of food: Principles and practices. Springer, New York) and was excluded from the analysis. A light signal was sent to give the instruction to test the sample. When the disturbance to the nervous system returned to its baseline level (after approximately 1 min), a second light signal indicated to the subjects that they should complete a questionnaire regarding the stimulus tested previously. The first part of the questionnaire was linked to the identification of the taste (i.e. determining the quality of the taste); the subjects had to choose between five labels: sweet, salty, sour, bitter or neutral. They then had to assign a taste intensity score on an 11-point scale (from 0 “not intense” (i.e. taste of Evian only) to 10 “very intense”) and finally to give a hedonic score on an 11-point scale (from 0 “very unpleasant” to 10 “very pleasant”, 5 being “neutral”).
(§5) This procedure was repeated for each of the 9 stimuli. A session lasted approximately 45 min including a debriefing at the end of the test to ensure understanding of the sense of the signal variations. The experiment was repeated 12 times per subject, meaning that the data are composed of 6 data sets per subject and per product and 12 data sets for the Evian product per subject. Thus, the database consists of 432 samples.

[2] = system: four non-smoking volunteers (2 men and 2 women); test: Taste intensity score, 11-point scale (0 not intense to 10 very intense); type: in vivo, human; conditions: averaged over 4 subjects, 6 repetitions each
Experimental: as §1, §2, §3, §4, §5
The effect of the taste on the hedonic and intensity scores was analyzed by an analysis of variance (ANOVA) including the product effect, the subject effect and the product-subject interaction. The subject effect was fixed because there were only 4 subjects and the results could only be applied to a particular schema. The differences were considered to be significant at a level of 0.05.

## O=C(O)CC(O)(CC(=O)O)C(=O)O [Citric acid, citric acid]
[1]; Subject 1, dilution 1
  Individual recognition score: Bitter: 1
  Individual recognition score: Neutral: 3
  Individual recognition score: Salty: 0
  Individual recognition score: Sour: 1
  Individual recognition score: Sweet: 1
[1]; Subject 1, dilution 2
  Individual recognition score: Bitter: 1
  Individual recognition score: Neutral: 4
  Individual recognition score: Salty: 0
  Individual recognition score: Sour: 1
  Individual recognition score: Sweet: 0
[1]; Subject 1, dilution 3
  Individual recognition score: Bitter: 0
  Individual recognition score: Neutral: 0
  Individual recognition score: Salty: 0
  Individual recognition score: Sour: 6
  Individual recognition score: Sweet: 0
[1]; Subject 1, dilution 4
  Individual recognition score: Bitter: 0
  Individual recognition score: Neutral: 0
  Individual recognition score: Salty: 0
  Individual recognition score: Sour: 6
  Individual recognition score: Sweet: 0
[1]; Subject 2, dilution 1
  Individual recognition score: Bitter: 0
  Individual recognition score: Neutral: 5
  Individual recognition score: Salty: 0
  Individual recognition score: Sour: 0
  Individual recognition score: Sweet: 1
[1]; Subject 2, dilution 2
  Individual recognition score: Bitter: 0
  Individual recognition score: Neutral: 3
  Individual recognition score: Salty: 0
  Individual recognition score: Sour: 2
  Individual recognition score: Sweet: 1
[1]; Subject 2, dilution 3
  Individual recognition score: Bitter: 0
  Individual recognition score: Neutral: 0
  Individual recognition score: Salty: 0
  Individual recognition score: Sour: 6
  Individual recognition score: Sweet: 0
[1]; Subject 2, dilution 4
  Individual recognition score: Bitter: 0
  Individual recognition score: Neutral: 0
  Individual recognition score: Salty: 0
  Individual recognition score: Sour: 6
  Individual recognition score: Sweet: 0
[1]; Subject 3, dilution 1
  Individual recognition score: Bitter: 2
  Individual recognition score: Neutral: 3
  Individual recognition score: Salty: 0
  Individual recognition score: Sour: 1
  Individual recognition score: Sweet: 0
[1]; Subject 3, dilution 2
  Individual recognition score: Bitter: 4
  Individual recognition score: Neutral: 1
  Individual recognition score: Salty: 0
  Individual recognition score: Sour: 1
  Individual recognition score: Sweet: 0
[1]; Subject 3, dilution 3
  Individual recognition score: Bitter: 0
  Individual recognition score: Neutral: 0
  Individual recognition score: Salty: 0
  Individual recognition score: Sour: 6
  Individual recognition score: Sweet: 0
[1]; Subject 3, dilution 4
  Individual recognition score: Bitter: 0
  Individual recognition score: Neutral: 0
  Individual recognition score: Salty: 0
  Individual recognition score: Sour: 6
  Individual recognition score: Sweet: 0
[1]; Subject 4, dilution 1
  Individual recognition score: Bitter: 3
  Individual recognition score: Neutral: 2
  Individual recognition score: Salty: 0
  Individual recognition score: Sour: 1
  Individual recognition score: Sweet: 0
[1]; Subject 4, dilution 2
  Individual recognition score: Bitter: 1
  Individual recognition score: Neutral: 1
  Individual recognition score: Salty: 0
  Individual recognition score: Sour: 4
  Individual recognition score: Sweet: 0
[1]; Subject 4, dilution 3
  Individual recognition score: Bitter: 0
  Individual recognition score: Neutral: 0
  Individual recognition score: Salty: 0
  Individual recognition score: Sour: 6
  Individual recognition score: Sweet: 0
[1]; Subject 4, dilution 4
  Individual recognition score: Bitter: 0
  Individual recognition score: Neutral: 0
  Individual recognition score: Salty: 0
  Individual recognition score: Sour: 6
  Individual recognition score: Sweet: 0
[1]; four subjects, dilution 1
  Level of Recognition %: Bitter: 25%
  Level of Recognition %: Neutral: 54%
  Level of Recognition %: Salty: 0%
  Level of Recognition %: Sour: 13%
  Level of Recognition %: Sweet: 8%
[1]; four subjects, dilution 2
  Level of Recognition %: Bitter: 25%
  Level of Recognition %: Neutral: 38%
  Level of Recognition %: Salty: 0%
  Level of Recognition %: Sour: 33%
  Level of Recognition %: Sweet: 4%
[1]; four subjects, dilution 3
  Level of Recognition %: Bitter: 0%
  Level of Recognition %: Neutral: 0%
  Level of Recognition %: Salty: 0%
  Level of Recognition %: Sour: 100%
  Level of Recognition %: Sweet: 0%
[1]; four subjects, dilution 4
  Level of Recognition %: Bitter: 0%
  Level of Recognition %: Neutral: 0%
  Level of Recognition %: Salty: 0%
  Level of Recognition %: Sour: 100%
  Level of Recognition %: Sweet: 0%
[2]; concentration 1
  intensity score: 1.2±1.5
[2]; concentration 2
  intensity score: 1.0±1.0
[2]; concentration 4
  intensity score: 8.4±1.2

## [Cl-].[Na+] [NaCl, sodium chloride]
[1]; Subject 1, dilution 1
  Individual recognition score: Neutral: 0
  Individual recognition score: Salty: 6
  Individual recognition score: Sour: 0
  Individual recognition score: Sweet: 0
[1]; Subject 1, dilution 2
  Individual recognition score: Neutral: 0
  Individual recognition score: Salty: 6
  Individual recognition score: Sour: 0
  Individual recognition score: Sweet: 0
[1]; Subject 1, dilution 3
  Individual recognition score: Neutral: 0
  Individual recognition score: Salty: 6
  Individual recognition score: Sour: 0
  Individual recognition score: Sweet: 0
[1]; Subject 1, dilution 4
  Individual recognition score: Neutral: 0
  Individual recognition score: Salty: 6
  Individual recognition score: Sour: 0
  Individual recognition score: Sweet: 0
[1]; Subject 2, dilution 1
  Individual recognition score: Neutral: 0
  Individual recognition score: Salty: 6
  Individual recognition score: Sour: 0
  Individual recognition score: Sweet: 0
[1]; Subject 2, dilution 2
  Individual recognition score: Neutral: 0
  Individual recognition score: Salty: 6
  Individual recognition score: Sour: 0
  Individual recognition score: Sweet: 0
[1]; Subject 2, dilution 3
  Individual recognition score: Neutral: 0
  Individual recognition score: Salty: 6
  Individual recognition score: Sour: 0
  Individual recognition score: Sweet: 0
[1]; Subject 2, dilution 4
  Individual recognition score: Neutral: 0
  Individual recognition score: Salty: 6
  Individual recognition score: Sour: 0
  Individual recognition score: Sweet: 0
[1]; Subject 3, dilution 1
  Individual recognition score: Neutral: 0
  Individual recognition score: Salty: 6
  Individual recognition score: Sour: 0
  Individual recognition score: Sweet: 0
[1]; Subject 3, dilution 2
  Individual recognition score: Neutral: 0
  Individual recognition score: Salty: 6
  Individual recognition score: Sour: 0
  Individual recognition score: Sweet: 0
[1]; Subject 3, dilution 3
  Individual recognition score: Neutral: 0
  Individual recognition score: Salty: 6
  Individual recognition score: Sour: 0
  Individual recognition score: Sweet: 0
[1]; Subject 3, dilution 4
  Individual recognition score: Neutral: 0
  Individual recognition score: Salty: 6
  Individual recognition score: Sour: 0
  Individual recognition score: Sweet: 0
[1]; Subject 4, dilution 1
  Individual recognition score: Neutral: 0
  Individual recognition score: Salty: 5
  Individual recognition score: Sour: 0
  Individual recognition score: Sweet: 0
[1]; Subject 4, dilution 2
  Individual recognition score: Neutral: 0
  Individual recognition score: Salty: 6
  Individual recognition score: Sour: 0
  Individual recognition score: Sweet: 0
[1]; Subject 4, dilution 3
  Individual recognition score: Neutral: 0
  Individual recognition score: Salty: 6
  Individual recognition score: Sour: 0
  Individual recognition score: Sweet: 0
[1]; Subject 4, dilution 4
  Individual recognition score: Neutral: 0
  Individual recognition score: Salty: 6
  Individual recognition score: Sour: 0
  Individual recognition score: Sweet: 0
[1]; four subjects, dilution 1
  Level of Recognition %: Neutral: 0%
  Level of Recognition %: Salty: 96%
  Level of Recognition %: Sour: 0%
  Level of Recognition %: Sweet: 0%
[1]; four subjects, dilution 2
  Level of Recognition %: Neutral: 0%
  Level of Recognition %: Salty: 100%
  Level of Recognition %: Sour: 0%
  Level of Recognition %: Sweet: 0%
[1]; four subjects, dilution 3
  Level of Recognition %: Neutral: 0%
  Level of Recognition %: Salty: 100%
  Level of Recognition %: Sour: 0%
  Level of Recognition %: Sweet: 0%
[1]; four subjects, dilution 4
  Level of Recognition %: Neutral: 0%
  Level of Recognition %: Salty: 100%
  Level of Recognition %: Sour: 0%
  Level of Recognition %: Sweet: 0%
[1]; human, in vivo
  Individual recognition score: Bitter: 0 (15×) and 1
  Level of Recognition %: Bitter: 4% and 0%
[2]; concentration 4
  intensity score: 8.6±1.0
